Assay results: patent publication US9963457B2, “Crystal of 5-((2-(6-amino)-9H-purin-9-yl)ethyl)amino)pentan-1-o1” (FOREVER CHEER INTERNATIONAL LIMITED, priority 2016, dated 2018)
≈ marks a conversion by molar mass, not a printed value.

Tests used:
[1] = system: mice treated with yeast polysaccharide; assay: Elevated plus maze test (EPM), visceral pain; assay type: in vivo; conditions: for % time in the open arm: Visceral pain
Procedure: (§1) The visceral pain is induced by injecting yeast polysaccharide into the mice colony, and the yeast polysaccharide is derived from Saccharomyces cerevisiae (Sigma), wherein one kind of dextran is resident on the cell wall of the yeast and is identified as a protein-carbohydrate complex. Specifically, the mice were anesthetized after inhaling 1-3% isoflurane, and then a […] suspension of yeast polysaccharide (formulated as a 30 mg/ml solution in physiological saline) was injected into the colon of the mice by using a 24 mm long plastic feed needle within 2 minutes. The control group was injected with 0.1 ml physiological saline. The yeast polysaccharide or physiological saline was injected daily for 3 days. A visceral pain behavior test was carried out according to the Laird procedure. The number of times the mice licking the abdomen within 10 minutes was recorded, excluding other grooming behaviors, stretching of whole body, pressing the abdomen against the floor, and an 1-2-second arched posture. On day 1, 7 and 14 after the injection into the colon, an open field test was carried out from 9 am to 12 pm, and the entire test was a double-blind test. Prior to the behavioral test, the mice were acclimated for 30 minutes in an observation room. The mice were placed at the middle of a new open zone (43.2×43.2×30.5 cm^3) with micro light (<50 lux) and a fan. The movement distance, vertical count, movement count, stereotypic behavior count, and jumping count of animals were recorded within 30 minutes by means of an activity monitoring system equipped with multiple pairs of packaged light beam sets.
(§2) An anxious animal model of the prior art—the elevated plus maze test (EPM) was adopted. The mice were acclimated for 30 minutes in the room prior to the behavior observation. The EPM was composed of two open arms (250 lux) and two closed arms (350 lux) arranged opposite to each other. For each test, an individual animal was placed at the center of the test position and allowed to move freely. The test is carried out for 5 minutes. The number of entering the test position for each arm and the time spent therefore were recorded.
(§3) The EPM test tested the anxiety behavior of mice after the test treatment. The physiological saline, non-crystalline NB001 (3 mg/kg), the crystal of the present invention (3 mg/kg), and Gabapentin (30 mg/kg) as a positive control were intraperitoneally injected (IP) into the mice treated with yeast polysaccharide respectively. The behaviors of Mice were observed 28 days after the yeast polysaccharide treatment.

[2] = system: mice after neuropathic pain; assay: Elevated plus maze test (EPM), neuropathic pain; assay type: in vivo
Procedure: as §2
The other two sets of tests were conducted to test the effect of the crystal of the present invention on inhibiting anxiety caused by chronic pain and neuropathic pain.
as §3

[3] = system: mice treated with yeast polysaccharide; assay: Bright/dark box test, visceral pain; assay type: in vivo; conditions: for % time in the open arm: Bright/dark box test, Visceral pain
Procedure: as §1
Bright/dark box test: The test procedure was carried out by using an improved method in accordance with the prior art. The device was composed of a rectangular organic glass box (44×8.5×25 cm^3), which is separated into bright and dark compartments with the equal size by using a door. A 60 watt lamp (400 lux) in turn-on state was placed at 30 cm above the box to irradiate the bright compartment. Each animal was first placed in the dark compartment for 20 seconds, and then the door leading to the bright compartment was open. The time each animal stayed in the dark compartment and the time each animal enters the bright compartment within 10 minutes were recorded.
In order to confirm the effect of the crystal of the present invention on inhibiting anxiety, mice were subjected to a bright/dark box test, and the results were as shown in Table 8. The physiological saline, non-crystalline NB001 (3 mg/kg), the crystal of the present invention (3 mg/kg), and Gabapentin (30 mg/kg) as a positive control were intraperitoneally injected (IP) into the mice treated with yeast polysaccharide respectively. The behaviors of Mice were observed 28 days after the yeast polysaccharide treatment.

[4] = system: mice after neuropathic pain; assay: Bright/dark box test, neuropathic pain; assay type: in vivo
[5] = system: mice treated with yeast polysaccharide; assay: Visceral pain behavior test in chronic visceral pain model; assay type: in vivo; conditions: for Number of visceral pain scores: 28 days after yeast polysaccharide treatment
Procedure: Chronic Visceral Pain Model
as §1
as §3, with “The” for “The EPM test tested the anxiety behavior of mice after the test treatment. The”

[6] = system: bone cancer pain model in rat (Walker 256 cells); assay: Paw withdrawal thermal latency (PWL) in bone cancer pain model; assay type: in vivo, SD rats; conditions: twice daily for 3 days, PWL at 2 h after last administration (21d)
Procedure: 1. Animals 50 SD rats (180-220 g), placed under a quiet and warm (22° C.) environment without strong light irradiation, having free access to feed and water.
2. Cell Culture: SD Rat homologous cancer cell strains Walker 256 preserved by the Laboratory Animal Center, Forth Military Medical
University, or a commercially available product can be used. RPMI 1640 culture medium (Gibco Inc. of US, containing 100 U/ml each of 10% fetal bovine serum, penicillin, and streptomycin) was used, and the tumor cells were incubated as suspension cells in a 37° C. incubator under 5% CO2, with the medium replaced every other day, and 2 days for 1 passage. The cells were harvested at the 3rd passage, with a cell concentration of 2×10^5/10 μl.
3. Establishment of bone cancer pain model in rat: the rats were operated at the left knee with a small incision after anesthesia (40 mg/kg of pentobarbital sodium) according to sterile surgical operation procedures, the muscle was stripped off gently and the patellar ligament is cut open to expose the distal femur, with 1 mm syringe needle inserted from the intercondylar fossa vertically into the marrow cavity, with an inserting distance no more than 5 mm to prevent punching. Then a 20 μl micro-injector was inserted into the marrow cavity to slowly inject 10 μl of a suspension containing the Walker 256 cells (2×10^5 cancer cells per 10 μl). The injector was stayed there for a few minutes after the injection, and then the needle pinhole was immediately sealed with sterile bone wax. The tumor cells leaking out of the marrow cavity were killed with 75% ethyl alcohol, and then the rat was sutured under sterile conditions layer by layer. The same operation was performed in the sham operation group, except that only the same volume of sterile saline was injected into the marrow cavity slowly.
6. Drug intervention: On day 18 after the surgical operation, the SD rats of the operation group were randomized into 6 groups, i.e., respectively the model group; non-crystalline NB001 group (20 mg/kg, i.g.); the group of the crystal of the present invention (20 mg/kg, i.g.); morphine (2 mg/kg, i.p.); and gabapentin (100 mg/kg, i.g.). The new crystal form and non-crystalline form of the AC1 inhibitor NB001 were both formulated with sterile saline, and morphine and gabapentin were used as positive control drugs. All drugs were administered twice daily for 3 days, and the pain threshold was measured within 2 hours after the last administration on day 3
7. Assessment of rat pain behavior:
Paw withdrawal thermal latency (PWL): the PWL was measured by using a PL-200 thermal pain stimulator (8V, 50 W, with a strength of 100%). The time period since the time irradiating the middle portion of the planta pedis at the operation side of the rat with light till the time the rat lifted its leg to keep out of the light was TWL. To prevent tissue injury, a cut-off time of 80 s was set, each rat was measured for 3 times with an interval of 5 min, and the results were averaged.

[7] = Approximate solubility of BPCs in organic solvent and mixed solvent; assay type: physicochemical; conditions: organic solvent or mixture, thermodynamic from solid
Procedure: Into 7 mL vials were weighed 2.0 mg of the raw material respectively. Then appropriate amount of methanol, ethanol, isopropyl alcohol, n-butanol, acetonitrile, acetone, ethyl acetate, 2-methyl tetrahydrofuran, tetrahydrofuran, dioxane, n-pentyl alcohol, toluene, isopropyl alcohol+water (with a mass ratio of 3:1), acetonitrile+water (with a mass ratio of 3:1), acetone+water (with a mass ratio of 3:1), and ethanol+water (with a mass ratio of 3:1) were added into respective vials, and the mixture was shaken rapidly to dissolve the compound of the mixture until the solution becomes clear. The approximate solubility of the resultant bulk pharmaceutical chemicals (BPC) in an organic solvent and a mixed solvent was shown in Table 1 below.

[8] = target: adenylate cyclase 1 (Homo sapiens, UniProt Q08828); conditions: described in WO2007/041863; cited from earlier work
Sequence of adenylate cyclase 1 (Q08828 whole entry): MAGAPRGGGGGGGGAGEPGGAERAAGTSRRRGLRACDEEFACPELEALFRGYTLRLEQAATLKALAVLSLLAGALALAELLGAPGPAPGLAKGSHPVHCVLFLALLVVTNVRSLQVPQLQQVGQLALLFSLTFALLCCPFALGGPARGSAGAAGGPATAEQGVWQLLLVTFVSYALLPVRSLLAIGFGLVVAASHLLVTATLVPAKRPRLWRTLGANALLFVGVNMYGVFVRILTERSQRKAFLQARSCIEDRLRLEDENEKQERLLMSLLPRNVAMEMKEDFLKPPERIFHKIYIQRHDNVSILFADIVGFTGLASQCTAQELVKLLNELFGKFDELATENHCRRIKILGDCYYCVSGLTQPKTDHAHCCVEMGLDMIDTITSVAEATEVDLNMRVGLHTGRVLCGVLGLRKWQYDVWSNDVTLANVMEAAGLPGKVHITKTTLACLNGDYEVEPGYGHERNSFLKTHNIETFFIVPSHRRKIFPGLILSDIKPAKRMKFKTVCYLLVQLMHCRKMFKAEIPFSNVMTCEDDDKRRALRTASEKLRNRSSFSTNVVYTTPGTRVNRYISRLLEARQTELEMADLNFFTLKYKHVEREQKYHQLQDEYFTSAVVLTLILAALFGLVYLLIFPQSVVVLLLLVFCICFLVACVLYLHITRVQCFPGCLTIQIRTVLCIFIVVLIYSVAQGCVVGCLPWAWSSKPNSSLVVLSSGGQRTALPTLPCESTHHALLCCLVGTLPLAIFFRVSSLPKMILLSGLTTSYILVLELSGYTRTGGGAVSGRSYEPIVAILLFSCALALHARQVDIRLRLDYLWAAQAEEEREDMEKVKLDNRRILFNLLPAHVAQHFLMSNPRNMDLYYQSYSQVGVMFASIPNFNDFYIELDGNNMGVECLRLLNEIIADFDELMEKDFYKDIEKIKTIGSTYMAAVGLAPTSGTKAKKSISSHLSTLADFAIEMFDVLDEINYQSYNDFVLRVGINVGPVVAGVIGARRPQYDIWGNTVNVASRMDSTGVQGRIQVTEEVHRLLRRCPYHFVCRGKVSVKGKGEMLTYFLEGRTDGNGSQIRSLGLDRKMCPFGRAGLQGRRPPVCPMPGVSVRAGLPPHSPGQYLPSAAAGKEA

## NCC1(CC(=O)O)CCCCC1 [Gabapentin, gabapentin, reference compound]
[1]; 30 mg/kg IP
  % time in the open arm: 8.6 ± 1.5 (8) %
[2]; 30 mg/kg IP
  % time in the open arm: 9.6 ± 1.5 (7) %
[3]; 30 mg/kg IP
  % time in the open arm: 8.6 ± 1.5 (8) %
[4]; 30 mg/kg IP
  % time in the open arm: 9.6 ± 1.5 (7) %
[5]; 30 mg/kg IP
  Number of visceral pain scores: 20.7 ± 1.9
[6]; 100 mg/kg, i.g.
  analgesic effect (PWL) as compared with the model group: better analgesic effect

## Nc1ncnc2c1ncn2CCNCCCCCO [NB001, 5-(((2-(6-amino)-9H-purin-9-yl)ethyl)amino)pentan-1-ol]
[1]; 3 mg/kg IP, 3 mg/kg
  % time in the open arm: 5.2 ± 0.7 (8) %
[2]; 3 mg/kg IP, 3 mg/kg
  % time in the open arm: 10.1 ± 1.8 (8) %
[3]; 3 mg/kg IP, 3 mg/kg
  % time in the open arm: 5.2 ± 0.7 (8) %
[7]; 2-methyl tetrahydrofuran
  solubility: < 2000 µg/mL
[7]; acetone
  solubility: < 2000 µg/mL
[7]; acetone/water (mass ratio 3:1)
  solubility: 100000 to 200000 µg/mL
[7]; acetonitrile
  solubility: < 2000 µg/mL
[7]; acetonitrile/water (mass ratio 3:1)
  solubility: 100000 to 200000 µg/mL
[7]; dioxane
  solubility: < 2000 µg/mL
[7]; ethanol
  solubility: 7000 to 10000 µg/mL (≈ 26.5 to 37.8 mM)
[7]; ethanol/water (mass ratio 3:1)
  solubility: 100000 to 200000 µg/mL
[7]; ethyl acetate
  solubility: < 2000 µg/mL
[7]; isopropyl alcohol
  solubility: ~2000 µg/mL (≈ 7.57 mM)
[7]; isopropyl alcohol/water (mass ratio 3:1)
  solubility: 70000 to 100000 µg/mL
[7]; methanol
  solubility: 50000 to 66000 µg/mL (≈ 189 to 250 mM)
[7]; n-butanol
  solubility: 2200 to 2500 µg/mL (≈ 8.32 to 9.46 mM)
[7]; n-pentyl alcohol
  solubility: 3000 to 4000 µg/mL (≈ 11.3 to 15.1 mM)
[7]; tetrahydrofuran
  solubility: < 2000 µg/mL
[7]; toluene
  solubility: < 2000 µg/mL
[4]; 3 mg/kg IP, 3 mg/kg
  % time in the open arm: 10.1 ± 1.8 (8) %
[8]
  inhibition of adenylate cyclase 1: capable of selectively inhibiting adenylate cyclase 1

## Nc1ncnc2c1ncn2CCNCCCCCO [Old NB001, 5-(((2-(6-amino)-9H-purin-9-yl)ethyl)amino)pentan-1-ol]
[1]; 3 mg/kg IP, Table 7, listed as non-crystalline NB001
  therapeutic effect in EPM test as compared with the positive control group: significant therapeutic effects
[3]; 3 mg/kg IP, Table 8, listed as non-crystalline NB001
  therapeutic effect in bright/dark box test as compared with the positive control group: significant therapeutic effects
[5]; 3 mg/kg IP
  Number of visceral pain scores: 19.6 ± 1.2
[5]; 3 mg/kg IP, Table 6, listed as non-crystalline NB001
  therapeutic effect on chronic pain as compared with the positive control group: significant therapeutic effects
[6]; 20 mg/kg, i.g.
  analgesic effect (PWL) as compared with the model group: better analgesic effect

## CN1CC[C@]23c4c5ccc(O)c4O[C@H]2[C@@H](O)C=C[C@H]3[C@H]1C5 [morphine, reference compound]
[6]; 2 mg/kg, i.p.
  analgesic effect (PWL) as compared with the model group: better analgesic effect
